The target of assay [1] is T1, 5HT2 (Rattus norvegicus, UniProt P14842). As to the kind of experiment: Brain Serotonin (5-HT2) Radioreceptor Assay (3H-ketanserin displacement, rat frontal cortex membranes). Type of assay: binding. Also on record: dissected from brains obtained from female rats; from tissue; host or cells: frontal cortex of female rats (about 150 g), membrane fragments. The settings on record: 15 min at 37° C. On the procedure: Brain Serotonin (5-HT2) Radioreceptor Assay
The test objects of this Example were rat frontal cortex membranes. Mebrane fragments were prepared from the frontal cortex dissected from brains obtained from female rats (≈150 g). […] Compound bound to the receptor site was separated from the remaining unbound compound by vacuum filtration. […] Specific binding was determined by the difference between total counts bound and counts bound in the presence of 10^-6 M methysergide.

In assay [2] the test system is serotonin-induced platelet aggregation. As to the kind of experiment: Platelet Aggregation Assay (serotonin-induced). Type of assay: cell-based. The settings on record: human plasma, serotonin 5 μM. The protocol: Platelet Aggegation Assay
Human blood was collected into tubes containing sodium citrate. The plasma was separated by centrifugation and was used as the source of platelets. Serotonin (5 μM) was used as the agonist to induce platelet aggregation. A control aggregation curve (as measured by the decrease in absorbance in transmitted light) was obtained in the presence of serotonin and in the absence of test compound. The test compound was added to an identical sample in a cuvette for one minute before addition of serotonin to yield the experimental curve.

The target in a further assay is T2, 5HT1A receptor (Rattus norvegicus, UniProt P19327).
T2 construct: Membrane fragments were prepared from prefrontal cortex; from tissue; host or cells: prefrontal/frontal cortex of female rats (about 150 g), membrane fragments
T2 sequence (P19327 1-422): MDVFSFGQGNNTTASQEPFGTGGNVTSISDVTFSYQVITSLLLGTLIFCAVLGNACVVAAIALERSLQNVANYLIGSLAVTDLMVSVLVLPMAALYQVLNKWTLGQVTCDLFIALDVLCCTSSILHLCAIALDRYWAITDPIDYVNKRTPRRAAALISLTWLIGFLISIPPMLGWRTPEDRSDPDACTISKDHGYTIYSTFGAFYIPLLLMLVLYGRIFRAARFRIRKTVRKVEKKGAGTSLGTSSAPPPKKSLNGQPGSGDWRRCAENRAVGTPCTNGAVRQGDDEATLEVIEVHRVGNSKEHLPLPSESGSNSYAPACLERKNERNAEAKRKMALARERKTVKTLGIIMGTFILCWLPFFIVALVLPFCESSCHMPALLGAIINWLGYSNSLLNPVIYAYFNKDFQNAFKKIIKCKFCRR
As to the kind of experiment: Brain Serotonin (5HT1A) radioreceptor Assay (3H-8-OH DPAT displacement, rat frontal cortex membranes). Type of assay: binding. The settings on record: 3H-8-OH DPAT. The protocol:
Brain Serotonin (5HT1A) radioreceptor Assay
The text objects of this procedure were rat frontal cortex membranes. Membrane fragments were prepared from prefrontal cortex disected from brains obtained from female rats (≈150 g). The 5HT1A sites were labeled with ^3 H-8-OH dipropylaminotetralin (8-OH-DPAT). Membrane fragments, ^3 H-8-OH DPAT, TRIS buffer (pH 7.4) and unlabeled compound were incubated for 10 minutes at 37° C. and then for 10 minutes at 4° C. Separation of bound from unbound ^3 H-8-OH DPAT was performed by vacuum filtration on a glass fiber disc. The ability of a compound to compete with ^3 H-8-OH DPAT for binding sites is a measure of the affinity of the compound for the 5HT1A receptor. Specific binding was determined by the difference between total counts bound and the counts bound in the presence of […] 5-hydroxytryptamine.

Assay [3] deals with alpha1 adrenergic receptor. As to the kind of experiment: Alpha1 Blockade in vivo (inhibition of phenylephrine pressor response). Also on record: species or system spontaneously hypertensive rats (SHR). The settings on record: anesthetized, vagotomized SHR; i.v. The protocol: The potency of these compounds as alpha1 adrenergic antagonists was determined using the following procedure: adult male spontaneously hypertensive rats (SHR) were anesthetized and bilaterally vagotomized. A carotid artery and jugular vein were cannulated for monitoring mean arterial blood pressure and drug administration, respectively. The percent inhibition of alpha1 adrenergic receptor activation was quantified by measuring pressor responses to phenylephrine before and after antagonist treatment. […] Compounds were tested to the limits of their solubility for intravenous administration.

The target in assay [4] is T1, 5HT2. As to the kind of experiment: 5HT2 Blockade in vivo (antagonism of 5HT induced pressor responses). Also on record: Spontaneously hypertensive rats were anesthetized with sodium pentobarbital; from tissue; host or cells: whole animal: anesthetized spontaneously hypertensive rats (vasculature); species or system spontaneously hypertensive rats. As to conditions: for ED50: rat, iv, read-out: 5-HT-Induced Pressor Response ED50. The protocol:
Antagonism of 5HT induced pressor responses was used to assess 5HT2 blockade in vivo. Spontaneously hypertensive rats were anesthetized with sodium pentobarbital (50 mg/kg, i.p.). The right carotid artery and vein were cannulated for pressure recording and drug injection, respectively. The trachea was cannulated, the rat placed on a respirator and ventilated with room air at 50-60 breaths/minute. Rats were pretreated with prazosin hydrochloride (1 mg/kg, i.v., blous) and pentolinium tartrate (5 mg/kg, i.v., bolus). After 10 minutes equilibration, the rat was challenged with 5HT (100 μg/kg) which elevates mean arterial pressure (MAP) 60-100 mmHg; non-responsive rats were discarded.
After a baseline had been reestablished, bolus injections of 5HT (100 μg/kg, i.v.) were given and the MAP responses were evaluated both pre- and post-drug administration. 5HT challenges were repeated 10 minutes after each dose of antagonist. Up to three cumulative doses of the antagonist were given to a single animal.

The next assay has as its system serotonin receptors. As to the kind of experiment: Inhibition of 5-HTP-Induced Head Twitching. The settings on record: male CD1 mice; for Inhibit. of 5-HTP-Head Twitch ED50: 5-HTP 160 mg/kg i.v. after one hour. Type of assay: in vivo. The protocol:
Inhibition of 5-HTP-Induced Head Twitching
This test detects compounds with antagonistic activity of serotonin receptors in vivo, and is a modified procedure of Corne, Pickering and Warner, Brit. J. Pharmacol. 20, 106 (1963). Groups of male CD1 mice were fasted overnight but allowed water ad libitum. They were deprived of water during the course of the experiment. The mice were weighed and treated orally or parenterally with the test compound in a dose volume of 10 ml/kg. Doses of test substance were calculated based upon the active compound. Substances for oral administration were dissolved or suspended in a 0.5% aqueous methylcellulose (15 centipoises) vehicle containing 4 ml of Tween 80/l.
A dose of 160 mg/kg of L-5-hydroxytryptophan (5-HTP) was administered i.v. in a dose volume of 5 ml/kg after one hour. The test mouse was restrained in a rodent restrainer that allowed the tail to extend out the back. The tail was then placed in tepid (but not scalding) water for approximately 10 seconds to soften the skin and dilate the tail vein. A 1 ml syringe and 25 gauge (5/8 inch) needle was used to administer the 5-HTP solution into one of the lateral tail veins.
A timer was started after dosing with 5-HTP to the first animal of the test group. […] A head twitch involves the head, neck and ears and has the appearance of an exaggerated pinal reflex. The number of head twitches for each individual vehicle-treated mouse were recorded to establish a historical baseline.
The active compounds in the test block the twitch response (the response rated all or none).

The subject of assay [5] is Serotonin-Induced Smooth Muscle Contractions (rabbit thoracic aorta). As to the kind of experiment: Inhibition of Serotonin-Induced Smooth Muscle Contractions (isolated thoracic aorta strips). Type of assay: cell-based. The settings on record: concentration shifting the serotonin dose curve 10x to the right, 10 min preincubation, read-out: 5-HT-Induced Smooth Muscle Contraction DR10. The protocol: Inhibition of Serotonin-Induced Smooth Muscle Contractions
The test objects of this Example were canines and rabbits. Rabbits were sacrificed by T-61 injection and the thoracic aorta was removed immediately. The aorta was placed in warmed, oxygenated Krebs-Henseleit buffer. After the tissue was cleaned, a 2-3 mm wide strip was cut helically from each aorta. A strip of approximately 5 cm was suspended in Krebs-Henseleit buffer at 37° C. in a 25 ml tissue bath and the tissues equilibrated at an initial resting tension of 4 g for 90-120 minutes. An initial serotonin dose curve, 0.01-10 μM was then done on each tissue, followed by a 60 minute washout and reequilibration. The test drug was then added for a 10 minute preincubation and another serotonin dose curve was done using 0.01-100 μM.
Results are expressed as DR10 values. This is the concentration of the compound required to shift the serotonin dose curve 10x to the right, i.e., the concentration of antagonist at which the concentration of serotonin required for 50% maximal contraction is increased ten-fold.

Setting [6] is: read-out: Brain 5-HT1 Receptor % displaced (% inhibition).

Like-named read-outs stand apart in the source and are kept apart here.

A word on the IC50: it is the concentration that gives 50% inhibition. For orientation: inhibition means the share of the control response that was lost under treatment. The term ED50 denotes the dose that gives a 50% effect, or the effect in half of the subjects.

T1 sequence (P14842 whole entry, the tested form may be a part): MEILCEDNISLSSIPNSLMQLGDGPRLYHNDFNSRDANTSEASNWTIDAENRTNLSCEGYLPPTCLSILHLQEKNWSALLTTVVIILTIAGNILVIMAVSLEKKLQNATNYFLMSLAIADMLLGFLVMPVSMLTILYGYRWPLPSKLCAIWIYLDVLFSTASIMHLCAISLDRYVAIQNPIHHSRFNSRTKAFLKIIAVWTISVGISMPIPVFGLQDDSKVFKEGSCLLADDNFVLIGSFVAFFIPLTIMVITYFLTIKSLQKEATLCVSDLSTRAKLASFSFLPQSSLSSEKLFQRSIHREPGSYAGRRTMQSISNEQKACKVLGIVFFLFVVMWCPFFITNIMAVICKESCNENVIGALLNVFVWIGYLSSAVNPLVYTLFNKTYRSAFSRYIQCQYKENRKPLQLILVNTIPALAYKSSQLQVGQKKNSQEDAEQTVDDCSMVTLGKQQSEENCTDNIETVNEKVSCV

Consider `CC(=O)n1c(=O)n(CCN2CCC(C(=O)c3ccc(F)cc3)CC2)c(=O)c2cscc21` [Example 11, 1-Acetyl-3-[2-[4-(4-fluorobenzoyl)piperidin-1-yl]ethyl]thieno[3,4-d]pyrimidine-2,4-dione], for which the IC50 on 5HT2 [1] was 12.5 nM; in assay [2] (Platelet) it was 90 nM. Besides, the inhibition at 1 µM at 5HT1A receptor (setting [6]) is 0%. In assay [3], the “Phenylephrine-Induced Pressor Response ED50” value is reported as 10.0 mg/kg. Besides, at 5HT2 [4], the ED50 is 0.029 mg/kg.
As to `O=c1[nH]c2ccsc2c(=O)n1CCN1CCC(=C(c2ccc(F)cc2)c2ccc(F)cc2)CC1` [Example 5, 3-[2-[4-[Bis(4-fluorophenyl)methylene]piperidin-1-yl]ethyl]thieno[3,2-d]pyrimidine-2,4-dione], the IC50 at 5HT2 [1] was 7 nM; in assay [2] (Platelet) it was 1800 nM. In addition, the “Inhibit. of 5-HTP-Head Twitch ED50” value with serotonin receptors was 1.78 mg/kg, p.o. Also, on 5HT1A receptor (setting [6]), the inhibition at 1 µM turned out to be 3%. Moreover, in assay [3], the “Phenylephrine-Induced Pressor Response ED50” value was above 10 mg/kg. Also, the IC (10-fold shift) in assay [5] (Oryctolagus cuniculus, 10 min) amounted to 0.1 µM. Besides, on 5HT2 [4], the ED50 was 0.017 mg/kg.
In the case of `O=C(c1ccc(F)cc1)C1CCN(CCn2c(=O)[nH]c3cscc3c2=O)CC1` [Example 10, 3-[2-[4-(4-Fluorobenzoyl)piperidin-1-yl]ethyl]thieno[3,4-d]pyrimidine-2,4-dione], the IC50 was 0.33 nM on 5HT2 [1]; 20 nM in assay [2] (Platelet); 12000 nM on 5HT1A receptor (rat frontal cortex membranes, pH 7.4, read-out: Brain 5-HT1 Receptor IC50). Also, the “Inhibit. of 5-HTP-Head Twitch ED50” value with serotonin receptors is listed as 0.63 mg/kg, p.o. Moreover, the “Phenylephrine-Induced Pressor Response ED50” value in assay [3] is below 10 mg/kg. The IC (10-fold shift) in assay [5] (Oryctolagus cuniculus, 10 min) is 0.00524 µM. The ED50 at 5HT2 [4] was found to be 0.888 mg/kg.
`Cn1c(=O)n(CCN2CCC(C(=O)c3ccc(F)cc3)CC2)c(=O)c2cscc21` [Example 14, 3-[2-[4-(4-Fluorobenzoyl)piperidin-1-yl]ethyl]-1-methylthieno[3,4-d]pyrimidine-2,4-dione]: the IC50 stood at 7 nM on 5HT2 [1] and 40 nM in assay [2] (Platelet). The “Inhibit. of 5-HTP-Head Twitch ED50” value in the assay with serotonin receptors is on record as 2.96 mg/kg, p.o. Besides, the inhibition at 1 µM at 5HT1A receptor (setting [6]) stood at 31%. Also, the “Phenylephrine-Induced Pressor Response ED50” value in assay [3] is reported as below 10 mg/kg. The ED50 at 5HT2 [4] was determined as 0.018 mg/kg.
With `O=c1[nH]c2cscc2c(=O)n1CCN1CCC(=C(c2ccc(F)cc2)c2ccc(F)cc2)CC1` [Example 4, 3-[2-[4-[Bis(4-fluorophenyl)methylene]piperidin-1-yl]ethyl]thieno[3,4-d]pyrimidine-2,4-dione], the IC50 on 5HT2 [1] worked out at 2.8 nM; in assay [2] (Platelet) it was 5300 nM. Further, in the assay with serotonin receptors, the “Inhibit. of 5-HTP-Head Twitch ED50” value was “≈ 10 mg/kg, p.o”. Besides, the inhibition at 1 µM at 5HT1A receptor (setting [6]) turned out to be 20%. In assay [3], the “Phenylephrine-Induced Pressor Response ED50” value is above 10 mg/kg. The IC (10-fold shift) in assay [5] (Oryctolagus cuniculus, 10 min) was found to be 0.0165 µM. For the same molecule, the ED50 on 5HT2 [4] was 0.16 mg/kg.
In turn, `Cc1nc2sccn2c(=O)c1CCN1CCC(=C(c2ccc(F)cc2)c2ccc(F)cc2)CC1` [Ritanserin, reference compound] yielded an IC50 in assay [2] of 1200 nM. Also, the “Inhibit. of 5-HTP-Head Twitch ED50” value with serotonin receptors is 0.32 mg/kg, p.o. Further, the “Phenylephrine-Induced Pressor Response ED50” value in assay [3] is recorded as 5.36 mg/kg. Also, the IC (10-fold shift) in assay [5] worked out at 1.0 nM. In addition, the “5-HT-Induced Pressor Response ED50” value at 5HT2 [4] (anesthetized SHR, 5HT 100 μg/kg i.v., cumulative doses of antagonist) is recorded as 0.008 mg/kg.
With `O=c1[nH]c2cocc2c(=O)n1CCN1CCC(=C(c2ccc(F)cc2)c2ccc(F)cc2)CC1` [Example 9, 3-[2-[4-[Bis(4-fluorophenyl)methylene]piperidin-1-yl]ethyl]furo[3,4-d]pyrimidine-2,4-dione], the IC50 at 5HT2 [1] was 4.2 nM; in assay [2] (Platelet), 6250 nM. For the same molecule, the “Inhibit. of 5-HTP-Head Twitch (result in words)” value with serotonin receptors (@ 10 (mg/kg, p.o.)) is “Inact”. Moreover, the inhibition at 1 µM on 5HT1A receptor (setting [6]) stood at 12%. Besides, the “Phenylephrine-Induced Pressor Response ED50” value in assay [3] is listed as above 10 mg/kg. In addition, the IC (10-fold shift) in assay [5] (Oryctolagus cuniculus, 10 min) was 0.01 µM. For the same molecule, on 5HT2 [4], the ED50 stood at 0.02 mg/kg.
As to `O=C(c1ccc(F)cc1)C1CCN(CCn2c(=O)[nH]c3sccc3c2=O)CC1` [Example 2, 3-[2-[4-(4-Fluorobenzoyl)piperidin-1-yl]ethyl]thieno[2,3-d]pyrimidine-2,4-dione], the IC50 at 5HT2 [1] was found to be 1.6 nM. The “Inhibit. of 5-HTP-Head Twitch ED50” value with serotonin receptors is reported as 0.26 mg/kg, p.o. Besides, at 5HT1A receptor (@ 10 μM, read-out: Brain 5-HT1 Receptor % displaced (% inhibition)), the inhibition at 10 µM is 24%. Also, the “Phenylephrine-Induced Pressor Response ED50” value in assay [3] is on record as below 3.0 mg/kg. Further, at 5HT2 [4], the ED50 is 0.016 mg/kg.

Source of the values: patent publication US4835157A, “Thieno- and furopyrimidine-2,4-dione piperidine derivatives as serotonin antagonists and alpha adrenergic blocking agents” (Ortho Pharmaceutical Corporation, priority 1988, dated 1989).
